The text below walks through data of US7192728B2, “Screening assays for agents that alter inhibitor of apoptosis (IAP) protein regulation of caspase activity” (The Burnham Institute, priority 1997, dated 2007).

One assay deals with T1, caspase-8 (Homo sapiens, UniProt Q14790).
T1 construct: a cDNA encoding the catalytic subunit of caspase-8 (Ser 217 to the C-terminus); His6; made in house; host or cells: E. coli BL21(DE3)pLysS
Briefly: Inhibition of purified recombinant caspase-8, DEVD substrate hydrolysis. It is filed as biochemical. As for the experimental part: Purified recombinant caspase-1, caspase-3, caspase-6, caspase-7 or caspase-8 were incubated with DEVD-pNA, either alone or with a 10-fold to 50-fold molar excess of GST-XIAP ([…]) and substrate hydrolysis was measured. Purified active caspase concentrations ranged from 0.1 nM to 10 nM. XIAP concentration ranged from 0.1 nM to 500 nM. Assays were performed in caspase buffer (50 mM Tris, pH 7.4, 100 mM NaCl, 10% sucrose, 5–10 mM DTT, 1 mM EDTA and 0.1% CHAPS).
Equilibria were determined from progress curves when substrate hydrolysis reached a steady-state; slopes were calculated by curve fit analysis using the cricket graph program. Experiments were performed using purified recombinant caspase-3, caspase-6, or caspase-7. DEVD-AFC hydrolysis was measured using 0.1 nM caspase and a range of concentrations (0.2 to 12 μM) of recombinant XIAP (rXIAP). […] Average ratio velocities (vi/vo, where “vi” indicates presence of GST-XIAP and “vo” indicates absence of GST-XIAP) were determined.

Assay [1] relates to DEVD-pNA hydrolysis activity in Jurkat T cell cytosolic extracts. Briefly: Cytochrome c/dATP-induced caspase activation (DEVD-pNA hydrolysis) in Jurkat T cell cytosolic extracts. It is filed as biochemical. As for the experimental part: Cells were washed with ice cold buffer A (20 mM Hepes (pH 7.5), 10 mM KCl, 1.5 mM MgCl2, 1 mM EDTA, 1 mM DTT and 0.1 mM PMSF) and suspended in 1 vol buffer A, then incubated on ice for 20 min. 293 cells were disrupted by passage 15× through a 26 gauge needle and Jurkat T cells were disrupted by dounce homogenization in 2 ml using 15 strokes with a pestle B. Cell extracts (10–15 mg total protein/ml) were clarified by centrifugation at 16,000×g for 30 min, then the NaCl concentration was increased by 50 mM. Cytosolic fractions were used immediately or stored frozen at −80° C.
Caspase activity was assayed by release of either 7-amino-4-trifluoromethyl-coumarin (AFC) or p-nitroanilide (pNA) from benzylyoxycarbonyl-DEVD (SEQ ID NO: 2) or benzylyoxycarbonyl-YVAD (SEQ ID NO: 3) synthetic peptides using a Molecular Devices Spectromax 340 for AFC labeled peptides or Perkin/Elmer LS50B for pNA labeled peptides (see Example II; see, also, Zhou et al., supra, 1997). Cytosolic extracts from 293 cells or Jurkat T cells were used directly (negative control) or were treated with 1 μM cytochrome c and 1 mM dATP or with cytochrome c, dATP and 0.2 μM GST-XIAP. Additional control reactions were performed by substituting 2 μM GST-Bcl-2, GST-Bax, GST-NM23 or GST-CD40 cytosolic domain, or 5 μM His6-S5a protein for GST-XIAP. DEVD-pNA hydrolysis was measured at various times and multiple experiments were performed using several different GST-XIAP preparations.

Another assay deals with 293T cells. The assay is described as follows: Bax-induced apoptosis and caspase activation in transfected 293T cells. In kind it is cell-based, human. As for the experimental part: N-benzyloxycarbonyl-Val-Ala-Asp fluoromethylketone (zVAD-fmk; 50 μM) (Bachem Calif.; Torrance, Calif.) was added immediately after transfection of the Bax plasmid. Transfection efficiency was uniformly 80–90%, as determined by X-Gal staining following cotransfection with pCMV-βGal.
Cells were maintained in culture for 24 hr, then floating and attached cells were harvested and an aliquot was removed and the percent of dead cells was determined by either trypan blue or propidium iodide (PI) dye exclusion assay. A second aliquot was used to assess the percentage of apoptotic cells with subdiploid DNA content by FACS analysis of PI stained, ethanol fixed cells. The remaining cell pellets were lysed in 10 mM HEPES (pH 7.5), 142 mM KCl, 1 mM EGTA, 1 mM DTT, 0.2% NP-40, 0.1 mM PMSF and used for immunoblot analysis or for protease assays.

In assay [2] the test system is pro-caspase-3 processing induced by cytochrome c. Briefly: Cytochrome c-induced processing of pro-caspase-3 in 293 cytosolic extracts. To be noted: immunoblot. In kind it is biochemical, human. As for the experimental part: Samples were incubated at 30° C. for 30 minutes. Extracts were then separated by SDS-PAGE electrophoresis, transferred to nitrocellulose and incubated with antisera specific for the zymogen and large subunit of caspase-3.
Briefly, cells were washed with ice-cold buffer A (20 mM Hepes [pH 7.5], 10 mM KCl, 1.5 mM MgCl2, 1 mM EDTA, and 1 mM DTT) and suspended in 1 volume of buffer A. Cells were incubated on ice for 20 minutes and then disrupted by passage through a 26 gauge needle 15 times. Cell extracts were clarified by centrifugation at 16,000×g for 30 minutes and the resulting supernatants were stored at −80° C. For initiating caspase activation, either 10 μM horse heart cytochrome c (Sigma, Inc.) together with 1 mM dATP, or 100 nM of purified recombinant caspase-8, was added to extracts (10–15 mg total protein/ml).
In general terms: Immunoblotting shows a protein as a band on a membrane.

T1 sequence (Q14790 217-374 limits assumed): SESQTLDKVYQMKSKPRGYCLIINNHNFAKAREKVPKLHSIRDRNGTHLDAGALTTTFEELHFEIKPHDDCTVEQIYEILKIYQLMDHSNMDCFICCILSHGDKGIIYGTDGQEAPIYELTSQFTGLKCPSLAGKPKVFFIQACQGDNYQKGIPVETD
T1 sequence (Q14790 385-479 limits assumed): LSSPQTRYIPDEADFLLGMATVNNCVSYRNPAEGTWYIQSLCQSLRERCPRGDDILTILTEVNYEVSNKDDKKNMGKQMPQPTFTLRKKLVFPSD

On to “XIAP: X chromosome linked inhibitor of apoptosis protein (Genbank U32974), used mostly as recombinant GST fusion or expressed from plasmid”, for which the “interference with substrate cleavage by caspase-8” value with caspase-8 (50-fold molar excess) is listed as “did not interfere”. Further, in the assay with caspase-8 (DEVD-AFC hydrolysis with/without GST-XIAP), the “average ratio velocity (vi/vo), caspase-8” value was “about 1.0”. Further, the “DEVD-pNA hydrolysis, ΔA405 after 15 min” value in assay [1] (untreated ≈0.02) was “≈ 0.025”. The “DEVD-pNA hydrolysis, ΔA405 after 20 min” value in assay [1] (untreated ≈0.025) is on record as “≈ 0.03”. The “apoptotic cells (PI staining) in Bax expressing cells” value in the assay with 293T cells (24 hr, Bax alone about 25%, zVAD-fmk 50 μM) is reported as “less than 10%”. For the same substance, the “Bax-induced generation of caspase activity and pro-caspase-3 processing (in words)” value in the assay with 293T cells (DEVD-AFC hydrolysis and immunoblot of cell extracts) was “markedly inhibited”. For the same substance, the “apoptotic cells (PI staining)” value in the assay with 293T cells (XIAP expressed without Bax, control plasmid about 2%) is reported as “about 5%”. Besides, the “concentration that effectively abolished cytochrome c-induced processing of pro-caspase-3” value in assay [2] was 0.1 to 0.2 µM.
